From patent publication US9499537B2, “Antiviral pyrrolopyridine derivatives and method for preparing the same” (KOREA RESEARCH INSTITUTE OF CHEMICAL TECHNOLOGY, priority 2011, dated 2016)

System: MT-4 cells
Assay: Cytotoxicity test in MT-4 cells (MTT method)
Assay type: cell-based
Details: human
Protocol: In order to look into the HIV-1 inhibition effects of the compound of the present invention, an in vitro test for HIV-1 inhibition effects was carried out as follows according to a known method (H. Tanaka et al., J. Med. Chem., 1991, 34, 349). MT-4 cells were used as host cells, and the degree of the compound of the present invention inhibiting the cytotoxicity of the virus-infected MT-4 cells was investigated.
First, MT-4 cells were diffused at a concentration of 1×10^4 cell/well to a culture medium, and HIV-1 was inoculated so that the concentration was 500 TCI50 (concentration at which 50% of the cell is infected)/well. Immediately after the inoculation, the cell dispersion was transferred in 100 μL each to a flat microtiter plate in which the sample of the compound of the present invention was placed. The sample was incubated for approximately for 4 to 5 days at […], and the virus suppression effect was determined using an MTT method. In addition, the cytotoxicity was also determined by measuring the survivability of the experimentally virus-infected cells using an MTT method. As a comparative compound, azidothymidine (AZT) and raltegravir were used.

In order of rising “CC60 (μM) ** : concentration at 50% cell damage with respect to MT-4 cells” value:
1. Cc1nc2c(c(C)c(C)n2Cc2cccc(Cl)c2)c(-c2ccc(Cl)cc2)c1C(OC(C)(C)C)C(=O)O (stereo not shown) [Example 6, 2-Tert-butoxy-2-(1-(3-chlorobenzyl)-4-(4-chlorophenyl)-2,3,6-trimethyl-1H-pyrrolo[2,3-b]pyridin-5-yl)acetic acid]  9.74 µM
2. Cc1nc2c(c(C)c(C)n2Cc2ccc(F)cc2)c(-c2ccc(Cl)cc2)c1C(OC(C)(C)C)C(=O)O (stereo not shown) [Example 8, 2-Tert-butoxy-2-(4-(4-chlorophenyl)-1-(4-fluorobenzyl)-2,3,6-trimethyl-1H-pyrrolo[2,3-b]pyridin-5-yl)acetic acid]  12.8 µM
3. Cc1nc2c(c(C)c(C)n2Cc2ccccc2C#N)c(-c2ccc(Cl)cc2)c1C(OC(C)(C)C)C(=O)O (stereo not shown) [Example 11, 2-Tert-butoxy-2-(4-(4-chlorophenyl)-1-(2-cyanobenzyl)-2,3,6-trimethyl-1H-pyrrolo[2,3-b]pyridin-5-yl)acetic acid]  15.19 µM
4. Cc1nc2c(c(C)c(C)n2Cc2ccccc2)c(-c2ccc(Cl)cc2)c1C(OC(C)(C)C)C(=O)O (stereo not shown) [Example 5, 2-(1-Benzyl-4-(4-chlorophenyl)-2,3,6-trimethyl-1H-pyrrolo[2,3-b]pyridin-5-yl)-2-tert-butoxyacetic acid]  17 µM
5. Cc1nc2c(c(C)c(C)n2CCC(C)C)c(-c2ccc(Cl)cc2)c1C(OC(C)(C)C)C(=O)O (stereo not shown) [Example 18, 2-Tert-butoxy-2-(4-(4-chlorophenyl)-1-isopentyl-2,3,6-trimethyl-1H-pyrrolo[2,3-b]pyridin-5-yl)acetic acid]  17.32 µM
6. Cc1nc2c(c(C)c(C)n2CC(C)C)c(-c2ccc(Cl)cc2)c1C(OC(C)(C)C)C(=O)O (stereo not shown) [Example 17, 2-Tert-butoxy-2-(4-(4-chlorophenyl)-1-isobutyl-2,3,6-trimethyl-1H-pyrrolo[2,3-b]pyridin-5-yl)acetic acid]  17.57 µM
7. Cc1nc2c(c(C)c(C)n2CC2CC2)c(-c2ccc(Cl)cc2)c1C(OC(C)(C)C)C(=O)O (stereo not shown) [Example 4, 2-Tert-butoxy-2-(4-(4-chlorophenyl)-1-(cyclopropylmethyl)-2,3,6-trimethyl-1H-pyrrolo[2,3-b]pyridin-5-yl)acetic acid]  18 µM
8. COc1ccc(Cn2c(C)c(C)c3c(-c4ccc(Cl)cc4)c(C(OC(C)(C)C)C(=O)O)c(C)nc32)cc1 (stereo not shown) [Example 9, 2-Tert-butoxy-2-(4-(4-chlorophenyl)-1-(4-methoxybenzyl)-2,3,6-trimethyl-1H-pyrrolo[2,3-b]pyridin-5-yl)acetic acid]  18.04 µM
9. C#CCn1c(C)c(C)c2c(-c3ccc(Cl)cc3)c(C(OC(C)(C)C)C(=O)O)c(C)nc21 (stereo not shown) [Example 20, 2-Tert-butoxy-2-(4-(4-chlorophenyl)-2,3,6-trimethyl-1-(prop-2-ynyl)-1H-pyrrolo[2,3-b]pyridin-5-yl)acetic acid]  18.77 µM
10. Cc1nc2c(c(C)c(C)n2CC2CC2)c(-c2ccc(Cl)cc2)c1[C@H](OC(C)(C)C)C(=O)O [Example 28, (S)-2-Tert-butoxy-2-(4-(4-chlorophenyl)-1-(cyclopropylmethyl)-2,3,6-trimethyl-1H-pyrrolo[2,3-b]pyridin-5-yl)acetic acid]  20.4 µM
11. CCCn1c(C)c(C)c2c(-c3ccc(Cl)cc3)c(C(OC(C)(C)C)C(=O)O)c(C)nc21 (stereo not shown) [Example 15, 2-Tert-butoxy-2-(4-(4-chlorophenyl)-2,3,6-trimethyl-1-propyl-1H-pyrrolo[2,3-b]pyridin-5-yl)acetic acid]  20.7 µM
12. Cc1nc2c(c(C)c(C)n2C(C)C)c(-c2ccc(Cl)cc2)c1C(OC(C)(C)C)C(=O)O (stereo not shown) [Example 21, 2-Tert-butoxy-2-(4-(4-chlorophenyl)-1-isopropyl-2,3,6-trimethyl-1H-pyrrolo[2,3-b]pyridin-5-yl)acetic acid]  24.51 µM
13. Cc1nc2c(c(C)c(C)n2C)c(-c2ccc(Cl)cc2)c1C(OC(C)(C)C)C(=O)O (stereo not shown) [Example 1, 2-Tert-butoxy-2-(4-(4-chlorophenyl)-1,2,3,6-tetramethyl-1H-pyrrolo[2,3-b]pyridin-5-yl)acetic acid]  25 µM
14. Cc1nc2c(c(C)c(C)n2CCC#N)c(-c2ccc(Cl)cc2)c1C(OC(C)(C)C)C(=O)O (stereo not shown) [Example 23, 2-Tert-butoxy-2-(4-(4-chlorophenyl)-1-(2-cyanoethyl)-2,3,6-trimethyl-1H-pyrrolo[2,3-b]pyridin-5-yl)acetic acid]  25.49 µM
15. C=CCn1c(C)c(C)c2c(-c3ccc(Cl)cc3)c(C(OC(C)(C)C)C(=O)O)c(C)nc21 (stereo not shown) [Example 3, 2-(1-Allyl-4-(4-chlorophenyl)-2,3,6-trimethyl-1H-pyrrolo[2,3-b]pyridin-5-yl)-2-tert-butoxyacetic acid]  26.19 µM
16. Cc1nc2c(c(C)c(C)n2C)c(-c2ccc(Cl)cc2)c1[C@@H](OC(C)(C)C)C(=O)O [Example 27, (R)-2-tert-butoxy-2-(4-(4-chlorophenyl)-1,2,3,6-tetramethyl-1H-pyrrolo[2,3-b]pyridin-5-yl)acetic acid]  29 µM
17. Cc1cccc(Cn2c(C)c(C)c3c(-c4ccc(Cl)cc4)c(C(OC(C)(C)C)C(=O)O)c(C)nc32)n1 (stereo not shown) [Example 14, 2-Tert-butoxy-2-(4-(4-chlorophenyl)-2,3,6-trimethyl-1-((6-methylpyridin-2-yl)methyl)-1H-pyrrolo[2,3-b]pyridin-5-yl)acetic acid]  36.6 µM
18. Cc1nc2c(c(C)c(C)n2C)c(-c2ccc(Cl)cc2)c1[C@H](OC(C)(C)C)C(=O)O [Example 26, (S)-2-Tert-butoxy-2-(4-(4-chlorophenyl)-1,2,3,6-tetramethyl-1H-pyrrolo[2,3-b]pyridin-5-yl)acetic acid]  55.84 µM
19. Cc1nc2c(c(C)c(C)n2Cc2cccnc2)c(-c2ccc(Cl)cc2)c1C(OC(C)(C)C)C(=O)O (stereo not shown) [Example 12, 2-Tert-butoxy-2-(4-(4-chlorophenyl)-2,3,6-trimethyl-1-(pyridin-3-ylmethyl)-1H-pyrrolo[2,3-b]pyridin-5-yl)acetic acid]  56.14 µM
20. Cc1nc2c(c(C)c(C)n2CCO)c(-c2ccc(Cl)cc2)c1C(OC(C)(C)C)C(=O)O (stereo not shown) [Example 24, 2-Tert-butoxy-2-(4-(4-chlorophenyl)-1-(2-hydroxyethyl)-2,3,6-trimethyl-1H-pyrrolo[2,3-b]pyridin-5-yl)acetic acid]  75.04 µM
21. Cc1nc2c(c(C)c(C)n2Cc2ccccn2)c(-c2ccc(Cl)cc2)c1C(OC(C)(C)C)C(=O)O (stereo not shown) [Example 13, 2-Tert-butoxy-2-(4-(4-chlorophenyl)-2,3,6-trimethyl-1-(pyridin-2-ylmethyl)-1H-pyrrolo[2,3-b]pyridin-5-yl)acetic acid]  85.91 µM
22. Cc1nc2c(c(C)c(C)n2CC2CC2)c(-c2ccc(Cl)cc2)c1[C@@H](OC(C)(C)C)C(=O)O [Example 29, (R)-2-tert-butoxy-2-(4-(4-chlorophenyl)-1-(cyclopropylmethyl)-2,3,6-trimethyl-1H-pyrrolo[2,3-b]pyridin-5-yl)acetic acid]  100 µM
23. Cc1nc2[nH]c(C)c(C)c2c(-c2ccc(Cl)cc2)c1C(OC(C)(C)C)C(=O)O (stereo not shown) [Example 25, 2-Tert-butoxy-2-(4-(4-chlorophenyl)-2,3,6-trimethyl-1H-pyrrolo[2,3-b]pyridin-5-yl)acetic acid]  108 µM
24. Cc1nc2c(c(C)c(C)n2CC#N)c(-c2ccc(Cl)cc2)c1C(OC(C)(C)C)C(=O)O (stereo not shown) [Example 22, 2-Tert-butoxy-2-(4-(4-chlorophenyl)-1-cyanomethyl-2,3,6-trimethyl-1H-pyrrolo[2,3-b]pyridin-5-yl)acetic acid]  114.47 µM

With `CCn1c(C)c(C)c2c(-c3ccc(Cl)cc3)c(C(OC(C)(C)C)C(=O)O)c(C)nc21` (stereo not shown) [Example 2, 2-Tert-butoxy-2-(4-(4-chlorophenyl)-1-ethyl-2,3,6-trimethyl-1H-pyrrolo[2,3-b]pyridin-5-yl)acetic acid] the “CC60 (μM) ** : concentration at 50% cell damage with respect to MT-4 cells” value was over 233 µM.
In the case of `Cc1nc2c(c(C)c(C)n2Cc2ccncc2)c(-c2ccc(Cl)cc2)c1C(OC(C)(C)C)C(=O)O` (stereo not shown) [Example 10, 2-Tert-butoxy-2-(4-(4-chlorophenyl)-2,3,6-trimethyl-1-(pyridin-4-ylmethyl)-1H-pyrrolo[2,3-b]pyridin-5-yl)acetic acid], the “CC60 (μM) ** : concentration at 50% cell damage with respect to MT-4 cells” value is reported as over 203 µM.
With `CCCCn1c(C)c(C)c2c(-c3ccc(Cl)cc3)c(C(OC(C)(C)C)C(=O)O)c(C)nc21` (stereo not shown) [Example 16, 2-Tert-butoxy-2-(1-butyl-4-(4-chlorophenyl)-2,3,6-trimethyl-1H-pyrrolo[2,3-b]pyridin-5-yl)acetic acid] the “CC60 (μM) ** : concentration at 50% cell damage with respect to MT-4 cells” value was over 219 µM.
With `Cc1nc2c(c(C)c(C)n2CN2C(=O)c3ccccc3C2=O)c(-c2ccc(Cl)cc2)c1C(OC(C)(C)C)C(=O)O` (stereo not shown) [Example 19, 2-Tert-butoxy-2-(4-(4-chlorophenyl)-1-((1,3-dioxoisoindolin-2-yl)methyl)-2,3,6-trimethyl-1H-pyrrolo[2,3-b]pyridin-5-yl)acetic acid] the “CC60 (μM) ** : concentration at 50% cell damage with respect to MT-4 cells” value was over 179 µM.
